Legend:
ferritin (Mus musculus) = test system: T1, ferritin (Mus musculus); assay: Quantitative proteomics analysis of whole-cell B16F10 proteins; assay type: cell-based, murine; settings: B16F10 cells, 0.5 μM, 12 h
T1 construct: ferritin expression levels in B16F10 cells were evaluated; endogenous in cells; host or cells: B16F10 (murine melanoma)
Description: Quantitative proteomics analysis: Cell culture and proteomic sample preparation: B16F10 cells were seeded in T75 cell culture flasks (2×10^6 cells per well) and cultured for 24 h. […] After incubation for 12 h, cells were washed with cold PBS twice and digested with 2 mL trypsin. The cell pellets were collected in 1.5 mL Eppendorf tubes through centrifugation at 1200 rpm for 3 minutes at 4° C. As for the proteomic sample preparation, cell pellets placed on the ice were completely resuspended with a cold 100 mM ammonium bicarbonate (ABC) solution. […] Based on the quantification results, an appropriate volume of lysate supernatant containing 20 μg proteins was collected and incubated with 10 mM DL-dithiothreitol (DTT) at 37° C. for 30 min. […]
LC-MS/MS analysis: The LC separations were performed with a Waters™ Nano-Acquity UPLC System. […] Eluted peptides were analyzed on Thermo Orbitrap Q-Exactive™ MS operated in positive ion mode with nano-ESI high-resolution Q-Exactive™ analysis. […]
Data analysis: All the resulting raw files were analyzed using Proteome Discoverer software v.2.4 (Thermo Fisher Scientific), SEQUEST HT using Uniprot Mus musculus reference proteome with a decoy database added to establish control variability and false discovery rates. […]

cleaved caspase 3 = assay: Western blot of cleaved caspase 3 in B16F10 cells; assay type: cell-based, murine; settings: 8 h
Description: (§1) As for the determination of cleaved-GSDME and cleaved-caspase-3, B16F10 cells were seeded in 6-well culture plates (2×10^5 cells per well) and cultured for 24 h. Then the medium in the corresponding wells except the negative control was replaced with 1 mL of medium containing ferritin degraders, albumin nanoparticles, or the degrader with inhibitors at the indicated concentrations. Incubation for another 6 or 8 h was used to test the cleaved-caspase-3, while treatment for another 16 or 20 h was used to test cleaved-GSDME. The following procedures were the same as mentioned above.

B16F10 cells = assay: ROS detection with DCFH-DA; assay type: cell-based, murine; settings: 5 μM, 8 h, compared to DeFer-2epi and VHL ligand plus OA
Description: ROS detection: DCFH-DA was used to evaluate the generation of intracellular ROS in cancer cells. 5×10^4 B16F10 cells were seeded in confocal dishes and cultured for 24 h at 37° C. […] After incubation for 8 h, cells were stained with DCFH-DA (10 μM) for 30 min. Finally, the cells were washed with PBS and subjected to Leica SP8 Confocal WLL STED Microscope for observation.

[1] = molecular target: T2, apoferritin from equine spleen (Equus caballus, UniProt P02791); assay: Isothermal titration calorimetry (ITC) binding to ferritin
T2 construct: the apoferritin from equine spleen (A3660, Sigma-Aldrich) that is not combined with iron was used; purchased Sigma-Aldrich A3660; host or cells: equine spleen (tissue-derived)
T2 sequence (P02791 2-175 limits assumed): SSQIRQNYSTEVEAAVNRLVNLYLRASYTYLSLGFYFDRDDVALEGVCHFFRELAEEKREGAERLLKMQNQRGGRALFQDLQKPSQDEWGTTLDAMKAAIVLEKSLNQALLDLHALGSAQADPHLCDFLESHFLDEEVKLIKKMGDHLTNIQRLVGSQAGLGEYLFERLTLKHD
Description: As for the ferritin proteins, the apoferritin from equine spleen (A3660, Sigma-Aldrich) that is not combined with iron was used. Before the ITC test, 1 mL of apoferritin in glycerol solution (50% glycerol and 0.075 M NaCl) was placed in a dialysis bag with a molecular weight cut-off of 3 kDa. The dialysis bags were then immersed in the prepared solution (20 mM Tris-HCl, pH 8.5, and 130 mM NaCl) and stirred at room temperature. The dialysis buffer was changed every 24 h for three times, and the last buffer was collected and 0.05% DMSO was added to serve as the ITC buffer. As for the oleic acid, 12 μM apoferritin in the ITC buffer was placed in the ITC cell, and the syringe was full of 250 μM oleic acid in the same ITC buffer. Besides the first injection with 5 μL of the oleic acid solution, 18 aliquots with 10 μL of the oleic acid solution were titrated into the apoferritin solution with a time interval of 300 s. […] Besides the first injection with 1 μL of the apoferritin solution, 25 aliquots were titrated with a time interval of 300 s. Raw data were corrected for control titrations (the solution in the syringe into the blank ITC buffer in the cell) and integrated using Origin 7.0 (MicroCal). Binding kinetics parameters, including N, Kd, ΔH, and ΔS, were calculated using a single-class binding site model.

GSDME-N = assay: Western blot of cleaved N-terminal GSDME (GSDME-N) in B16F10 cells; assay type: cell-based, murine; settings: 20 h
Description: as §1

CCCCCCCCC=CCCCCCCCC(=O)NCCCC(=O)NC(C(=O)N1CC(O)CC1C(=O)NCc1ccc(-c2scnc2C)cc1)C(C)(C)C (stereo not drawn) [DeFer-2]
reduction of ferritin levels compared to DeFer-2epi (ferritin (Mus musculus); proteomics): 44.1% | selectivity of ferritin degradation (global protein abundance) (ferritin (Mus musculus); versus DeFer-2epi): strong on-target effect | level of cleaved caspase 3 (cleaved caspase 3): increased the level of cleaved caspase 3 in a dose-dependent manner | ROS level (B16F10 cells): sharp rise in the ROS level | Kd [1]: 17.1 ± 1.96 µM | generation of GSDME-N (GSDME-N): enhance the generation of GSDME-N

— patent US20260273074A1, “FERRITIN-TARGETING PROTACS AND METHODS OF INDUCING PYROPTOSIS” (Wisconsin Alumni Research Foundation, priority 2023, published 2026)
